Assay results from ChEMBL document CHEMBL3877312, “Synthesis, anticholinesterase activity and molecular modeling study of novel carbamate-substituted thymol/carvacrol derivatives” (Bioorg Med Chem, 2017).

What was measured:
Cholinesterase = Cholinesterase (Equus caballus, UniProt P81908); assay: Inhibition of horse serum BuChE using butyrylthiocholine iodide as substrate preincubated for 15 mins followed by substrate addition by Ellman's method
Acetylcholinesterase = Acetylcholinesterase (Electrophorus electricus, UniProt O42275); assay: Inhibition of electric eel AChE using acetylthiocholine iodide as substrate preincubated for 15 mins followed by substrate addition by Ellman's method
[1] = Cytotoxicity against rat H4IIE cells assessed as cell viability at 0.07 uM after 24 hrs by MTT assay relative to control; assay type: toxicity; conditions: read-out: Activity
[2] = Cytotoxicity against rat H4IIE cells assessed as cell viability at 0.15 uM after 24 hrs by MTT assay relative to control; assay type: toxicity; conditions: read-out: Activity
[3] = Cytotoxicity against rat H4IIE cells assessed as cell viability at 0.3 uM after 24 hrs by MTT assay relative to control; assay type: toxicity; conditions: read-out: Activity
[4] = Cytotoxicity against rat H4IIE cells assessed as cell viability at 0.6 uM after 24 hrs by MTT assay relative to control; assay type: toxicity; conditions: read-out: Activity
[5] = Cytotoxicity against rat H4IIE cells assessed as cell viability at 1.25 uM after 24 hrs by MTT assay relative to control; assay type: toxicity; conditions: read-out: Activity
[6] = Cytotoxicity against rat H4IIE cells assessed as cell viability at 2.5 uM after 24 hrs by MTT assay relative to control; assay type: toxicity; conditions: read-out: Activity
[7] = Cytotoxicity against rat H4IIE cells assessed as cell viability at 5 uM after 24 hrs by MTT assay relative to control; assay type: toxicity; conditions: read-out: Activity
[8] = Cytotoxicity against rat H4IIE cells assessed as cell viability at 10 uM after 24 hrs by MTT assay relative to control; assay type: toxicity; conditions: read-out: Activity

Acetylcholinesterase, sequence (O42275 whole entry): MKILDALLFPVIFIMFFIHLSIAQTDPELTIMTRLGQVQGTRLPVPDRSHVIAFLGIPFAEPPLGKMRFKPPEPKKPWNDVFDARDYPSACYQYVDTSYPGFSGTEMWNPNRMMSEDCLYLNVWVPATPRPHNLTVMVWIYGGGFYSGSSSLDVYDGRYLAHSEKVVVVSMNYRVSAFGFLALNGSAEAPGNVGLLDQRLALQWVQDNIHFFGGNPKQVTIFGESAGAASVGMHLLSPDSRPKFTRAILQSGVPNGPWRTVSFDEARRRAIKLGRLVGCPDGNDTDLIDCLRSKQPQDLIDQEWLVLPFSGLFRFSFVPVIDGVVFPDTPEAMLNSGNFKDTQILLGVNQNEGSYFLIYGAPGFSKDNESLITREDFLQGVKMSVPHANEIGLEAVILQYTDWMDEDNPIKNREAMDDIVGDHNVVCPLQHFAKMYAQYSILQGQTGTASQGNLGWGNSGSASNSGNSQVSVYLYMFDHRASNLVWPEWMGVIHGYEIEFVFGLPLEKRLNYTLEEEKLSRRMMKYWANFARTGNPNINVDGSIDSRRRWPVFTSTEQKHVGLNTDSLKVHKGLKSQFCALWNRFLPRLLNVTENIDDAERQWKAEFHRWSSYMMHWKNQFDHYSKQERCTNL
Cholinesterase, sequence (P81908 whole entry): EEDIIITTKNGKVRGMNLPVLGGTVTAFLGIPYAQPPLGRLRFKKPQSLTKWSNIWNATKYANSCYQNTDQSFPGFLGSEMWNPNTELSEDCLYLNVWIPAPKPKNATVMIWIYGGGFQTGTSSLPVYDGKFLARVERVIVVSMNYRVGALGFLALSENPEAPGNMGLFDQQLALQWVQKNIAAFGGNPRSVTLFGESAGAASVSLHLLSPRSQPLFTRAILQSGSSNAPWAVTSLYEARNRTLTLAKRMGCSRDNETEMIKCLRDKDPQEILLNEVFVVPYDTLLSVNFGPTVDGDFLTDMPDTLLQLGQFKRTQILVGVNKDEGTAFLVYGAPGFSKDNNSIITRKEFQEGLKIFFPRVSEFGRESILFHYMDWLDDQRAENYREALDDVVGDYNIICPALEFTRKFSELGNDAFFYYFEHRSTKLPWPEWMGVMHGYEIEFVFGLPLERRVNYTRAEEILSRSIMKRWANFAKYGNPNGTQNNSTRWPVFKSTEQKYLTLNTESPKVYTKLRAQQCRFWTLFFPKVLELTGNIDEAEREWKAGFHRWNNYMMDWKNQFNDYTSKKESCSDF

SMILES | IC50 (Cholinesterase) [µM] | IC50 (Acetylcholinesterase) [µM] | further results
COc1ccc(NC(=O)Oc2cc(C)ccc2C(C)C)cc1 | 60 | – | –
Cc1ccc(NC(=O)Oc2cc(C(C)C)ccc2C)cc1 | 0.31 | 6.17 | –
Cc1ccc(C(C)C)cc1OC(=O)Nc1ccc(Cl)cc1 | 0.13 | 148 | –
Cc1ccc(C(C)C)c(OC(=O)Nc2ccc([N+](=O)[O-])cc2)c1 | 37.7 | 2.5 | viability at 24 h, 0.07 µM [1]: 97.8%; viability at 24 h, 0.15 µM [2]: 57.8%; viability at 24 h, 0.3 µM [3]: 54.4%; viability at 24 h, 0.6 µM [4]: 51.7%; viability at 24 h, 1.25 µM [5]: 47.2%; viability at 24 h, 2.5 µM [6]: 40%; viability at 24 h, 5 µM [7]: 32.8%; viability at 24 h, 10 µM [8]: 26.1%
Cc1ccc(C(C)C)cc1OC(=O)NCc1ccccc1 | 0.07 | 77.8 | –
Cc1ccc(C(C)C)cc1OC(=O)Nc1ccccc1 | 0.55 | 4.01 | viability at 24 h, 0.07 µM [1]: 93.8%; viability at 24 h, 0.15 µM [2]: 87.9%; viability at 24 h, 0.3 µM [3]: 90%; viability at 24 h, 0.6 µM [4]: 82.5%; viability at 24 h, 1.25 µM [5]: 60%; viability at 24 h, 2.5 µM [6]: 43.3%; viability at 24 h, 5 µM [7]: 25.8%; viability at 24 h, 10 µM [8]: 26%
COc1cccc(NC(=O)Oc2cc(C(C)C)ccc2C)c1 | 1.64 | 2.24 | –
Cc1ccc(C(C)C)c(OC(=O)Nc2ccc(Cl)c(Cl)c2)c1 | 2.54 | 89.5 | –
Cc1ccc(C(C)C)c(OC(=O)Nc2cccc([N+](=O)[O-])c2)c1 | 3.31 | 82.9 | –
Cc1ccc(C(C)C)cc1OC(=O)Nc1ccc(Cl)c(Cl)c1 | 0.41 | 86.2 | –
Cc1ccc(C(C)C)c(OC(=O)Nc2ccc(Br)cc2)c1 | 107 | 98.6 | –
Cc1ccc(C(C)C)cc1OC(=O)NCC1CCCCC1 | 0.3 | 8.08 | –
Cc1ccc(C(C)C)cc1OC(=O)Nc1cccc(F)c1 | 1.02 | 2.22 | viability at 24 h, 0.07 µM [1]: 98.1%; viability at 24 h, 0.15 µM [2]: 90%; viability at 24 h, 0.3 µM [3]: 74.1%; viability at 24 h, 0.6 µM [4]: 64.4%; viability at 24 h, 1.25 µM [5]: 47.8%; viability at 24 h, 2.5 µM [6]: 45.8%; viability at 24 h, 5 µM [7]: 37.2%; viability at 24 h, 10 µM [8]: 28.5%
COc1ccc(NC(=O)Oc2cc(C(C)C)ccc2C)cc1 | 0.52 | 54.5 | –
Cc1ccc(C(C)C)c(OC(=O)NC2CCCC2)c1 | 167 | 420 | –
Cc1ccc(C(C)C)cc1OC(=O)Nc1cccc2ccccc12 | 0.51 | 127 | –
Cc1ccc(C(C)C)cc1OC(=O)NC1CCCCCC1 | 112 | 126 | –
Cc1ccc(C(C)C)c(OC(=O)Nc2ccc(F)cc2)c1 | 405 | 270 | –
Cc1ccc(C(C)C)cc1OC(=O)NC1CCCCC1 | 1.03 | 23 | –

SMILES | IC50 (Cholinesterase) [µM] | IC50 (Acetylcholinesterase) [µM] | further results
Cc1ccc(C(C)C)cc1OC(=O)Nc1ccc([N+](=O)[O-])cc1 | 1.05 | 121 | –
COc1cccc(NC(=O)Oc2cc(C)ccc2C(C)C)c1 | 1.65 | 154 | –
Cc1ccc(C(C)C)cc1OC(=O)Nc1ccc(Br)cc1 | 0.15 | 104 | –
Cc1ccc(NC(=O)Oc2cc(C)ccc2C(C)C)cc1 | 9.4 | 229 | –
Cc1ccc(C(C)C)cc1OC(=O)Nc1ccc(C(F)(F)F)cc1 | 1.23 | 85.7 | –
Cc1ccc(C(C)C)c(OC(=O)Nc2ccc(C(F)(F)F)cc2)c1 | 148 | 98.5 | –
Cc1ccc(C(C)C)c(OC(=O)Nc2cccc(F)c2)c1 | 3.85 | 88.5 | –
Cc1ccc(C(C)C)cc1OC(=O)NC1CCCC1 | 1.01 | 3.37 | viability at 24 h, 0.07 µM [1]: 94.4%; viability at 24 h, 0.15 µM [2]: 75.6%; viability at 24 h, 0.3 µM [3]: 71.1%; viability at 24 h, 0.6 µM [4]: 63.3%; viability at 24 h, 1.25 µM [5]: 50.4%; viability at 24 h, 2.5 µM [6]: 47.8%; viability at 24 h, 5 µM [7]: 38.9%; viability at 24 h, 10 µM [8]: 37.4%
Cc1ccc(C(C)C)c(OC(=O)NCC2CCCCC2)c1 | 36.8 | – | –
Cc1ccc(C(C)C)cc1OC(=O)Nc1cccc([N+](=O)[O-])c1 | 0.56 | 5.05 | –
Cc1ccc(C(C)C)c(OC(=O)Nc2ccc(Cl)cc2)c1 | 137 | 229 | –
Cc1ccc(C(C)C)c(OC(=O)Nc2ccccc2)c1 | 5.02 | 198 | –
Cc1ccc(C(C)C)cc1OC(=O)Nc1ccc(F)cc1 | 0.02 | 3.02 | viability at 24 h, 0.07 µM [1]: 92.8%; viability at 24 h, 0.15 µM [2]: 69.4%; viability at 24 h, 0.3 µM [3]: 68.9%; viability at 24 h, 0.6 µM [4]: 65.9%; viability at 24 h, 1.25 µM [5]: 62.2%; viability at 24 h, 2.5 µM [6]: 41.6%; viability at 24 h, 5 µM [7]: 32.8%; viability at 24 h, 10 µM [8]: 28.5%
Cc1ccc(C(C)C)c(OC(=O)NCc2ccccc2)c1 | 1.45 | 111 | –
Cc1ccc(C(C)C)cc1OC(=O)Nc1ccc(I)cc1 | 0.21 | 138 | –
Cc1ccc(C(C)C)c(OC(=O)Nc2ccc(I)cc2)c1 | 4.77 | 31.6 | –
Cc1ccc(C(C)C)c(OC(=O)Nc2cccc3ccccc23)c1 | 96.1 | 157 | –
Cc1ccc(C(C)C)cc1O [CARVACROL] | 411 | 288 | –
Cc1ccc(C(C)C)c(O)c1 [THYMOL] | 226 | 458 | –
